ChEMBL document CHEMBL1201862, “PubChem BioAssay data set” (2004)
The source made the active and inactive calls.

Columns and labels:
[1] = biological target: T1, Replicative DNA helicase DnaB (Mycobacterium tuberculosis, UniProt P9WMR3); test: DnaB intein splicing inhibitors, dose response, biochemical, cell-free fluorescence (AID 449749); type: functional
T1 sequence (P9WMR3 whole entry): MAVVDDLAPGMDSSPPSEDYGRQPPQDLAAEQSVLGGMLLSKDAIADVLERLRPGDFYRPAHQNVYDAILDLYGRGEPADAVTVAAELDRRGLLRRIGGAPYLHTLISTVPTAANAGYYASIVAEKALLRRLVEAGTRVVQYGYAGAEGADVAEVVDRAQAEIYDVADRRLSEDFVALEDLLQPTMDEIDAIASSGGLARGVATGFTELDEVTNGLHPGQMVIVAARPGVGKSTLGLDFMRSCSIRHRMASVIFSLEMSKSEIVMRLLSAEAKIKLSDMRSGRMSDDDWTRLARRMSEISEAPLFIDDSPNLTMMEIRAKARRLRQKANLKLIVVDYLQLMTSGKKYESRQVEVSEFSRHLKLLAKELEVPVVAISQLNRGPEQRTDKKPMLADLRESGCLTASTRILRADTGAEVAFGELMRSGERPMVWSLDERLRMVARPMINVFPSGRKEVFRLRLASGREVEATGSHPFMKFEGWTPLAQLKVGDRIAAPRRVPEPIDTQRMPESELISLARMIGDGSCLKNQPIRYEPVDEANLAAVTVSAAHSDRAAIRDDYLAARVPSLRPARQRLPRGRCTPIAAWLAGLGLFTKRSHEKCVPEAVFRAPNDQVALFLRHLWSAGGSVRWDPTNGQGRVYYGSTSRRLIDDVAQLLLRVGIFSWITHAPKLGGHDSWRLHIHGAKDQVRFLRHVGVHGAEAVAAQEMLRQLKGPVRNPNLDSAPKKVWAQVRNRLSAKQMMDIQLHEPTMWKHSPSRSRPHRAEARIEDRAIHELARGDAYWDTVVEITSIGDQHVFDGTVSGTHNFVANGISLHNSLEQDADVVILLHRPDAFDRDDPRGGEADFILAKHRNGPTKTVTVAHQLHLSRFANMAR

Protein RecA = biological target: T2, Protein RecA (Mycobacterium tuberculosis, UniProt P9WHJ3); test: Fluorescence Cell-Free Homogeneous Dose Retest to Identify Inhibitors of RecA-Intein Splicing Activity. [Related pubchem assays (depositor defined):AID2097, AID2223, AID489010, AID492950]; type: functional
T2 sequence (P9WHJ3 whole entry): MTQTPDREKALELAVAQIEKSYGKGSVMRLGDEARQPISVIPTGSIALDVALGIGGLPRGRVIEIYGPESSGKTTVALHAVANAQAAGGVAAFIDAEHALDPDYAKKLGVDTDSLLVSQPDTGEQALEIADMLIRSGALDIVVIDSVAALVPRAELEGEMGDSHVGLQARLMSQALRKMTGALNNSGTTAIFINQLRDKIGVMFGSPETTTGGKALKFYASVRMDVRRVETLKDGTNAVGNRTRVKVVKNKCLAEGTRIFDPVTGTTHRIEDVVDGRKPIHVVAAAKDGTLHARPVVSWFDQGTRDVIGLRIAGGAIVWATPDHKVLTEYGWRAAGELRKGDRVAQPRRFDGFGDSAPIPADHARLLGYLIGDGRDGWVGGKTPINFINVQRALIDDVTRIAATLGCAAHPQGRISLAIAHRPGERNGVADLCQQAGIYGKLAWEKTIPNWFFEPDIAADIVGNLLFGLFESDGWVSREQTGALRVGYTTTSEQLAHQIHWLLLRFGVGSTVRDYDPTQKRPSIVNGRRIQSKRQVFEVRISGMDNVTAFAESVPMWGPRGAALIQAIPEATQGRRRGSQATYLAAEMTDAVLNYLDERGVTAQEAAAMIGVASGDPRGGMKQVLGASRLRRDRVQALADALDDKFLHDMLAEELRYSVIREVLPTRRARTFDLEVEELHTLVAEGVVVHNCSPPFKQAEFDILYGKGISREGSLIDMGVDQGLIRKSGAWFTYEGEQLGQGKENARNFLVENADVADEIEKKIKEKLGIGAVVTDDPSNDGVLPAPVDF

[2] = Luminescence Cell-Based Dose Response HTS to Identify Activators of Luciferase Translation or Activity in H4 […] Cells. [Related pubchem assays: 1829 (Project Summary), 1814 (Primary HTS)]; type: functional
H4 = test: Luminescence Cell-Based Dose Response HTS to Identify Activators of 5'UTR Stem-Loop Driven Prion Protein mRNA Translation in H4 Neuroglioblastoma Cells. [Related pubchem assays: 1829 (Project Summary), 1814 (Primary HTS)]; type: functional; settings: Homo sapiens
[3] = biological target: T3, RNA-binding protein pos-1 (Caenorhabditis elegans, UniProt G5EF15); test: disruptors of C. elegans POS-1 RNA interaction – biochemical, fluorescence polarization, dose response (AID 1964);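 further: purified POS-1 fused to maltose binding protein made in E. coli; potency of compounds blocking POS-1 binding to fluorescent RNA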
T3 sequence (G5EF15 whole entry): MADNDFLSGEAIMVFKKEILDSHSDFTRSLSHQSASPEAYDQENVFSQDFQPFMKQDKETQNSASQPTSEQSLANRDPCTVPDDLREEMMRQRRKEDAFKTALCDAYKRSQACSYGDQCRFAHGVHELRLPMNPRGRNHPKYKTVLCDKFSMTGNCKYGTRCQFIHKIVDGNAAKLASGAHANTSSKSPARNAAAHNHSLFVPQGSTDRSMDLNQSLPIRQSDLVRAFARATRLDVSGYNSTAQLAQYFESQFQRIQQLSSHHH

[4] = biological target: T4, Zinc finger protein mex-5 (Caenorhabditis elegans, UniProt Q9XUB2); test: potency of MEX-5 RNA-binding blockers – biochemical, C. elegans, fluorescence polarization, dose response (AID 1960)
T4 sequence (Q9XUB2 whole entry): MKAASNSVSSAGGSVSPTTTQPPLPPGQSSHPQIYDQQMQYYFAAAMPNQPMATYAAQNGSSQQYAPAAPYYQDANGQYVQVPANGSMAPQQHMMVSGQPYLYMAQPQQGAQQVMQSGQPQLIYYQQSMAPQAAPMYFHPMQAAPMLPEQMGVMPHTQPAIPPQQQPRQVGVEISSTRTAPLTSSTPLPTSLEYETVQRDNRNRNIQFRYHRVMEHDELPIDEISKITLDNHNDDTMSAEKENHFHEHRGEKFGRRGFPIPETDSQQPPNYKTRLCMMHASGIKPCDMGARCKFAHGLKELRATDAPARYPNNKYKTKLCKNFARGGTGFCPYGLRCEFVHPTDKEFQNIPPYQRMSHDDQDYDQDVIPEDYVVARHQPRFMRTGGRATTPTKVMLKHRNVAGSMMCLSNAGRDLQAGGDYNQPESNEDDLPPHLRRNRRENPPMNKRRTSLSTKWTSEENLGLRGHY

[5] = biological target: T5, Corticotropin-releasing factor receptor 2/Corticotropin-releasing factor-binding protein (Homo sapiens, UniProt P24387+Q13324); test: activators of CRF receptor 2 with binding protein – uHTS hits, confirmation (AID 602473); type: functional; settings: read-out: EC50_Mean
T5 sequence (Q13324 whole entry): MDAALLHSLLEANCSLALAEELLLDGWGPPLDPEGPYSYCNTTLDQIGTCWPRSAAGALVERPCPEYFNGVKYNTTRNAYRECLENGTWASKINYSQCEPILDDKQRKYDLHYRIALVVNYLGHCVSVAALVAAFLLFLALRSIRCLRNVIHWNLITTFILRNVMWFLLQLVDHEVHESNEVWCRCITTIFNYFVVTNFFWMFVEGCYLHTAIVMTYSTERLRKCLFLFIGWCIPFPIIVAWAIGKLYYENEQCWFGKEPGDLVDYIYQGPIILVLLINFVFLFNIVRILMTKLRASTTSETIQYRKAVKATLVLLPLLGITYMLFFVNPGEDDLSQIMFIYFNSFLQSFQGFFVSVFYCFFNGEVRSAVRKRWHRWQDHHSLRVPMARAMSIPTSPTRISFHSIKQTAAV
T5 sequence (P24387 whole entry): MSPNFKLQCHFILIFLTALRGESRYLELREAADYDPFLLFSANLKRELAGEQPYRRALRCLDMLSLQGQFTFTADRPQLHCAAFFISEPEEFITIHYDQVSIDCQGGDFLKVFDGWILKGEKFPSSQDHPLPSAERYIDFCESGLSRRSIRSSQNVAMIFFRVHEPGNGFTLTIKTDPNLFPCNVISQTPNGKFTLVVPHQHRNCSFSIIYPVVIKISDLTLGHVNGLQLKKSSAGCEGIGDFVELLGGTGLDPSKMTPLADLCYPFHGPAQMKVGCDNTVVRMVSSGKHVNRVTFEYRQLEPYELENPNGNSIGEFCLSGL

[6] = Luminescence Cell-Based Dose Retest to Confirm Inhibitors of Cancer Stem Cells. [Related pubchem assays (depositor defined):AID2717, AID2721]; type: functional; settings: Homo sapiens
Cytochrome P450 2D6 = Cytochrome P450 2D6 (Homo sapiens, UniProt P10635);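 further: CYP2D6 member of a cytochrome P450 panel assay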
Chain of Cytochrome P450 2D6 (P10635 whole entry): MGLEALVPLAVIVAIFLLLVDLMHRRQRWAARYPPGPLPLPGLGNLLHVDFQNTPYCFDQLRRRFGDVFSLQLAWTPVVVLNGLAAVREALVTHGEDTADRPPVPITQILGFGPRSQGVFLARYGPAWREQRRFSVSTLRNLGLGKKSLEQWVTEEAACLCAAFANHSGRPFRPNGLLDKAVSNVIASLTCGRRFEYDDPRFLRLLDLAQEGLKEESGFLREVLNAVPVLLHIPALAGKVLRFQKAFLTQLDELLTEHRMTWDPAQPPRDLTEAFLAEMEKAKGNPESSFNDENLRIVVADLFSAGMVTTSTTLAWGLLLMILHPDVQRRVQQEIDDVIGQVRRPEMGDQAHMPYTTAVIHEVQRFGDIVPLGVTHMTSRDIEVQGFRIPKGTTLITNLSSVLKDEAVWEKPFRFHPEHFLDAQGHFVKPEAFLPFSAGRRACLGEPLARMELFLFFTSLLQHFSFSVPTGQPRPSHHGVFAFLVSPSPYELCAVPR

cells = type: functional
[7] = luciferase reporter signal suppression in cells – H4 neuroglioma cells, luminescence, dose response (AID 1990); type: functional, cell-based
[8] = Luminescence Cell-Based Dose Response HTS to Identify Inhibitors of 5'UTR Stem-Loop Driven Prion Protein mRNA Translation in H4 Neuroglioblastoma Cells. [Related pubchem assays: 1827 (Project Summary), 1813 (Primary HTS)]; type: functional
[9] = alpha-synuclein stem-loop luciferase translation blockers – H4 neuroglioma cells, luminescence, confirmation (AID 1988); type: functional, cell-based
[10] = system: Streptococcus sp. 'group A'; test: Streptococcus pyogenes SK(-)GAS viability under kanamycin – luminescence, BacTiterGlo, confirmation, counter-screen for streptokinase expression inhibitor project, dose response (AID 1900); type: functional, organism-based
Streptococcus = test: GAS UMAA2166 growth inhibition – luminescence, BacTiterGlo, counter-screen for streptokinase expression inhibitor project, dose response (AID 1915); type: functional, organism-based;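 further: potency for reduction of bacterial viability or growth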
INS1 = test: INS-1E survival protection against cytokine death – cell-based, luminescence, retest, dose response (AID 449756); type: functional; settings: Rattus norvegicus;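 further: cell death triggered by IL-1 beta plus TNF-alpha plus IFN-gamma mixture; protective hits raise ATP signal compared with cytokine alone wells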
[11] = viability of PTEN-deleted HCT116 cells – cell-based, HCT116 PTEN knockout, dose response (AID 1047); type: functional;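 further: HCT116 colon tumor cells with PTEN knocked out; cells exposed to compound for 60 hours before readout; potency for loss of cell viability measured by luminescence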
[12] = biological target: T5, Corticotropin-releasing factor receptor 2/Corticotropin-releasing factor-binding protein; test: Dose Response confirmation of uHTS hits for small molecule antagonists of the CRF-binding protein and CRF-R2 receptor complex.; type: functional; settings: read-out: IC50_Mean
[13] = biological target: Luciferin 4-monooxygenase (Photinus pyralis, UniProt P08659); test: inhibition of purified Photinus pyralis luciferase – biochemical, luminescence, dose response (AID 1891)
Chain of Luciferin 4-monooxygenase (P08659 whole entry): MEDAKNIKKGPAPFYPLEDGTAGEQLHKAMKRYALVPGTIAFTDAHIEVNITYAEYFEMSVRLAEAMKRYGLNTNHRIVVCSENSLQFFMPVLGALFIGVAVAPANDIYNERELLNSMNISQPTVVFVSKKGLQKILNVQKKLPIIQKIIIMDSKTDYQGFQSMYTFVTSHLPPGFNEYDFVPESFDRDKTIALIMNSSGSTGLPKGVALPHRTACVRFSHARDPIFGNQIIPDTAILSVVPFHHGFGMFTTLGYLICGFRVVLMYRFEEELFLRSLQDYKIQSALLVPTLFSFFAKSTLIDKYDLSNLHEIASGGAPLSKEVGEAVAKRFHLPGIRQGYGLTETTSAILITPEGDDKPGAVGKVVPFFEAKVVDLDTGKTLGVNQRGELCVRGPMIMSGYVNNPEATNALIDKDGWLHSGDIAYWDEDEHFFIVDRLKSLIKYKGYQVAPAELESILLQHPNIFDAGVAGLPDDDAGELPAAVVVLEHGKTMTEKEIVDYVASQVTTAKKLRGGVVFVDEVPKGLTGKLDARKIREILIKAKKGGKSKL

[14] = Luminescence Cell-Based Dose Confirmation HTS to Identify Inhibitors of Platelet Dense Granule Release. [Related pubchem assays: 1663 (Primary HTS), 1678 (Summary of Project)]; type: functional
[15] = Trypanosoma cruzi growth suppression in host cells – NIH3T3 host cells, beta-gal luminescence, confirmation (AID 2044); type: functional, cell-based;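 further: intracellular parasites grown in NIH/3T3 mouse fibroblasts as host cells; luminescent beta-galactosidase reporter signal from transgenic T. cruzi replicating inside host cells; inhibitors lower the luminescence signal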
[16] = NIH3T3 cell viability loss – ATP luminescence, mouse fibroblasts, counter-screen, dose response (AID 2010); type: functional, cell-based;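 further: cells exposed to compound for about 90 hours before reading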

O=C1/C(=C/c2cccc([N+](=O)[O-])c2)CCc2ccccc21
AC50 [1]: 8.57 µM (active)
EC50 (Protein RecA): 13.3 µM (active)

Cc1csc(NC(=O)c2nc3nccc(C)n3n2)n1
EC50 [2]: 36.1 µM (active)
EC50 (H4): 37.4 µM (active)

CCOc1ccc(N2C(=O)NC(=O)/C(=C/Nc3ccc(N(CC)CC)cc3)C2=O)cc1
EC50 [3]: 151 µM (active)
EC50 [4]: 106 µM (active)
EC50 [5]: 10.4 µM (active)

CCCc1c(-c2ccc(O)cc2)nn(-c2ccc(O)cc2)c1-c1ccc(O)cc1 [PROPYLPYRAZOLETRIOL]
AC50 [6]: 3.78 µM (active)
AC50 [1]: 2.92 µM (active)
EC50 (Protein RecA): 4.88 µM (active)
AC50 (Cytochrome P450 2D6): 12.6 µM (inconclusive)

CCOC(=O)COc1ccc2c(c1)C(=O)CC(C)(c1cccnc1)O2 (stereo not given)
IC50 (cells): 11.2 µM (active)

COC(=O)c1ccccc1NC(=O)C(C)n1nc(C)c2c(C)n(-c3ccccc3)nc2c1=O (stereo not given)
EC50 [7]: 25.5 µM (active)
EC50 [8]: 20.1 µM (active)
EC50 [9]: 22.9 µM (active)
AC50 [1]: 208 µM (active)
EC50 (Protein RecA): > 380 µM (inactive)

COc1cc(C(C(=O)NC2CCCCC2)N(CCN2CCOCC2)C(=O)C2COc3ccccc3O2)cc(OC)c1OC (stereo not given)
AC50 [1]: > 380 µM (inactive)
EC50 (Protein RecA): > 380 µM (inactive)

O=C(CNc1ccc(F)cc1)N/N=C/c1c(O)ccc2ccccc12
EC50 [10]: 0.846 µM (active)
EC50 (Streptococcus): 1.67 µM (active)
AC50 (INS1): 2.94 µM (active)

Cc1n[nH]c2c1C(C1CC=CCC1)C(C#N)=C(N)O2 (stereo not given)
EC50 [11]: 34.7 µM (active)

O=C(Nc1ccccc1SCC1CSc2nc3ccccc3c(=O)n21)c1ccccc1 (stereo not given)
IC50 [12]: > 47.1 µM (inactive)
EC50 [5]: > 53 µM (inactive)

C=C[C@H](Cc1ccccc1)N(Cc1ccccc1)S(=O)(=O)N(Cc1ccccc1)[C@H](C=C)Cc1ccccc1
AC50 (INS1): 4.47 µM (active)

COc1ccc(OCCOC(=O)c2cccs2)cc1
IC50 (cells): 23.5 µM (active)

Cc1cccc(-n2c(C)cc(/C=N/n3cnnc3)c2C)c1
AC50 (INS1): 14.1 µM (active)

CC1CCCC(/C=N/c2ccc(C(=O)O)c(O)c2)=C1O (stereo not given)
IC50 (cells): 0.2 µM (active)

Cc1ccc(NC(=O)C(=O)NNC(=O)c2ccccc2C)cc1Cl
IC50 (cells): 6.8 µM (active)

CC1CCCCC1NC(=O)NC(=O)CCl (stereo not given)
AC50 [1]: 22.5 µM (active)
EC50 (Protein RecA): 12.3 µM (active)

COc1ccc(C(=O)C2CCCN(C(=O)c3ccc(CSC)o3)C2)cc1F (stereo not given)
IC50 (cells): 41.5 µM (active)

O=S1(=O)CCN(Cc2csc(-c3cccs3)n2)CC1
EC50 [13]: > 112 µM (not active)
EC50 [14]: 17.9 µM (active)
AC50 (INS1): 145 µM (active)

CCOC(=O)c1c(CCl)nc2ccccc2c1-c1ccccc1
AC50 [1]: 9.56 µM (active)
EC50 (Protein RecA): 12.6 µM (active)

Cc1ccc(/C=N/NC(=O)c2ccncc2)s1
IC50 (cells): 0.96 µM (active)

CCCN(CCC)C(=O)c1cc([N+](=O)[O-])cc2c1-c1ccc([N+](=O)[O-])cc1C2=C(C#N)C#N
EC50 [15]: 1.62 µM (active)
EC50 [16]: 10.7 µM (active)
AC50 (INS1): 6.7 µM (active)

Cc1n[nH]c2c1C(c1cccs1)C(C#N)=C(N)O2 (stereo not given)
AC50 [1]: 24.7 µM (active)
EC50 (Protein RecA): 4.74 µM (active)

Cc1ccc(-c2nn(-c3ccccc3)cc2/C=N/NC(=O)c2ccc3c(c2)OCO3)cc1
AC50 (INS1): 5.54 µM (active)
